# Measurements reported in PubChem BioAssay AID1918947 (Molecular Pharmacology Branch, DTP, NCI, 2023).
# Tested on: A498 complex spheroid viability
# Assay: Anticancer human tumor A498 cell line growth inhibition;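 also: spheroids exposed to agents for seven days before readout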;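 as to viability, T/C: 100% = DMSO vehicle-treated spheroids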
# Settings: for IC50: curve of first compound; for viability, T/C: stronger effect = lower value
# How it was run: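 Drug combinations with the LSD1 inhibitor iadademstat tested on tumor cells co-cultured as spheroids with endothelial cells and mesenchymal stem cells. Concentrations descended in half-log increments from clinical Cmax or 10 microM.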
# [1] = second compound 0.1 µM, first compound 0.0316 µM
# [2] = second compound 0.1 µM, first compound 0.1 µM
# [3] = second compound 0.1 µM, first compound 0.316 µM
# [4] = second compound 0.1 µM, first compound 1 µM
# [5] = second compound 0.1 µM, first compound 3.16 µM
# [6] = second compound 0.1 µM, first compound 10 µM
# [7] = second compound 0.316 µM, first compound 0.0316 µM
# [8] = second compound 0.316 µM, first compound 0.1 µM
# [9] = second compound 0.316 µM, first compound 0.316 µM
# [10] = second compound 0.316 µM, first compound 1 µM
# [11] = second compound 0.316 µM, first compound 3.16 µM
# [12] = second compound 0.316 µM, first compound 10 µM
# [13] = second compound 1 µM, first compound 0.0316 µM
# [14] = second compound 1 µM, first compound 0.1 µM
# [15] = second compound 1 µM, first compound 0.316 µM
# [16] = second compound 1 µM, first compound 1 µM
# [17] = second compound 1 µM, first compound 3.16 µM
# [18] = second compound 1 µM, first compound 10 µM
# [19] = second compound 3.16 µM, first compound 0.0316 µM
# [20] = second compound 3.16 µM, first compound 0.1 µM
# [21] = second compound 3.16 µM, first compound 0.316 µM
# [22] = second compound 3.16 µM, first compound 1 µM
# [23] = second compound 3.16 µM, first compound 3.16 µM
# [24] = second compound 3.16 µM, first compound 10 µM
# [25] = second compound 10 µM, first compound 0.0316 µM
# [26] = second compound 10 µM, first compound 0.1 µM
# [27] = second compound 10 µM, first compound 0.316 µM
# [28] = second compound 10 µM, first compound 1 µM
# [29] = second compound 10 µM, first compound 3.16 µM
# [30] = second compound 10 µM, first compound 10 µM
smiles,measurement,setting,value
Nc1ncn(C2CC(O)C(CO)S2)c(=O)n1 (stereo not given) + NC1CC1c1ccc(-c2cccc(O)c2)cc1,IC50,second compound 0.1 µM,255 nM
same,IC50,second compound 0.316 µM,254 nM
same,IC50,second compound 1 µM,257 nM
same,IC50,second compound 3.16 µM,236 nM
same,IC50,second compound 10 µM,259 nM
same,"viability, T/C","second compound 0.1 µM, first compound 0.000949 µM",110%
same,"viability, T/C","second compound 0.1 µM, first compound 0.003 µM",116%
same,"viability, T/C","second compound 0.1 µM, first compound 0.00949 µM",115%
same,"viability, T/C","second compound 0.1 µM, first compound 0.03 µM",95.4%
same,"viability, T/C","second compound 0.1 µM, first compound 0.0949 µM",74.7%
same,"viability, T/C","second compound 0.1 µM, first compound 0.3 µM",45.9%
same,"viability, T/C","second compound 0.316 µM, first compound 0.000949 µM",114%
same,"viability, T/C","second compound 0.316 µM, first compound 0.003 µM",121%
same,"viability, T/C","second compound 0.316 µM, first compound 0.00949 µM",116%
same,"viability, T/C","second compound 0.316 µM, first compound 0.03 µM",104%
same,"viability, T/C","second compound 0.316 µM, first compound 0.0949 µM",81.9%
same,"viability, T/C","second compound 0.316 µM, first compound 0.3 µM",44.6%
same,"viability, T/C","second compound 1 µM, first compound 0.000949 µM",118%
same,"viability, T/C","second compound 1 µM, first compound 0.003 µM",123%
same,"viability, T/C","second compound 1 µM, first compound 0.00949 µM",119%
same,"viability, T/C","second compound 1 µM, first compound 0.03 µM",105%
same,"viability, T/C","second compound 1 µM, first compound 0.0949 µM",81.8%
same,"viability, T/C","second compound 1 µM, first compound 0.3 µM",44.8%
same,"viability, T/C","second compound 3.16 µM, first compound 0.000949 µM",114%
same,"viability, T/C","second compound 3.16 µM, first compound 0.003 µM",106%
same,"viability, T/C","second compound 3.16 µM, first compound 0.00949 µM",125%
same,"viability, T/C","second compound 3.16 µM, first compound 0.03 µM",109%
same,"viability, T/C","second compound 3.16 µM, first compound 0.0949 µM",78.7%
same,"viability, T/C","second compound 3.16 µM, first compound 0.3 µM",42.5%
same,"viability, T/C","second compound 10 µM, first compound 0.000949 µM",104%
same,"viability, T/C","second compound 10 µM, first compound 0.003 µM",110%
same,"viability, T/C","second compound 10 µM, first compound 0.00949 µM",118%
same,"viability, T/C","second compound 10 µM, first compound 0.03 µM",105%
same,"viability, T/C","second compound 10 µM, first compound 0.0949 µM",87.9%
same,"viability, T/C","second compound 10 µM, first compound 0.3 µM",44.5%
CC1(C)CCC(CN2CCN(c3ccc(C(=O)NS(=O)(=O)c4ccc(NCC5CCOCC5)c([N+](=O)[O-])c4)c(Oc4cnc5[nH]ccc5c4)c3)CC2)=C(c2ccc(Cl)cc2)C1 + NC1CCC(NC2CC2c2ccccc2)CC1,IC50,second compound 0.1 µM,3670 nM
same,IC50,second compound 0.316 µM,3890 nM
same,IC50,second compound 1 µM,3470 nM
same,IC50,second compound 3.16 µM,2710 nM
same,IC50,second compound 10 µM,1970 nM
same,"viability, T/C",[1],87.7%
same,"viability, T/C",[2],89.2%
same,"viability, T/C",[3],85.5%
same,"viability, T/C",[4],76.4%
same,"viability, T/C",[5],57.5%
same,"viability, T/C",[6],3.91%
same,"viability, T/C",[7],87.2%
same,"viability, T/C",[8],92.6%
same,"viability, T/C",[9],91.3%
same,"viability, T/C",[10],79.1%
same,"viability, T/C",[11],60.7%
same,"viability, T/C",[12],4.52%
same,"viability, T/C",[13],84.5%
same,"viability, T/C",[14],86.2%
same,"viability, T/C",[15],85.1%
same,"viability, T/C",[16],76.9%
same,"viability, T/C",[17],54.3%
same,"viability, T/C",[18],3.45%
same,"viability, T/C",[19],82.5%
same,"viability, T/C",[20],85.5%
same,"viability, T/C",[21],80%
same,"viability, T/C",[22],70.2%
same,"viability, T/C",[23],47%
same,"viability, T/C",[24],3.58%
same,"viability, T/C",[25],81.1%
same,"viability, T/C",[26],75.2%
same,"viability, T/C",[27],76.5%
same,"viability, T/C",[28],65.2%
same,"viability, T/C",[29],39.2%
same,"viability, T/C",[30],2.98%
O=C(c1cc(Cc2n[nH]c(=O)c3ccccc23)ccc1F)N1CCN(C(=O)C2CC2)CC1 + NC1CC1c1ccc(-c2cccc(O)c2)cc1,IC50,second compound 0.1 µM,> 10000 nM
same,IC50,second compound 0.316 µM,> 10000 nM
same,IC50,second compound 1 µM,> 10000 nM
same,IC50,second compound 3.16 µM,> 10000 nM
same,IC50,second compound 10 µM,> 10000 nM
same,"viability, T/C",[1],107%
same,"viability, T/C",[2],111%
same,"viability, T/C",[3],105%
same,"viability, T/C",[4],105%
same,"viability, T/C",[5],107%
same,"viability, T/C",[6],91.5%
same,"viability, T/C",[7],109%
same,"viability, T/C",[8],113%
same,"viability, T/C",[9],111%
same,"viability, T/C",[10],108%
same,"viability, T/C",[11],102%
same,"viability, T/C",[12],97.8%
same,"viability, T/C",[13],107%
same,"viability, T/C",[14],110%
same,"viability, T/C",[15],105%
same,"viability, T/C",[16],99.1%
same,"viability, T/C",[17],97.6%
same,"viability, T/C",[18],96%
same,"viability, T/C",[19],101%
same,"viability, T/C",[20],105%
same,"viability, T/C",[21],104%
same,"viability, T/C",[22],103%
same,"viability, T/C",[23],95.2%
same,"viability, T/C",[24],91%
same,"viability, T/C",[25],102%
same,"viability, T/C",[26],105%
same,"viability, T/C",[27],107%
same,"viability, T/C",[28],101%
same,"viability, T/C",[29],102%
same,"viability, T/C",[30],88.4%
